Key:
PAMPA-BBB assay = settings: in-house conditions; 17 h, 200 μM, 25 °C, triplicate
[1] = earlier pharmacokinetic studies; cited from earlier work
CYPs = settings: earlier pharmacokinetic studies; cited from earlier work

| Determined Pe (PAMPA-BBB assay) | SMILES | human microsome metabolism [1] | CYPs inhibition (CYPs) |
| --- | --- | --- | --- |
| 17.41 10^−6 cm s^−1 | CNCc1cccc(-c2cc(F)cc(CCc3cc(C)cc(N)n3)c2)c1 [Compound 18, 6-(2-(5-Fluoro-3′-((methylamino)methyl)-[1,1′-biphenyl]-3-yl)ethyl)-4-methylpyridin-2-amine] | – | – |
| – | CNCCCc1cncc(CCc2cc(C)cc(N)n2)c1 [Compound 6] | little | very poor |
| 5.56 10^−6 cm s^−1 | CNCc1cccc(-c2cncc(CCc3cc(C)cc(N)n3)c2)c1 [Compound 16, 4-Methyl-6-(2-(5-(3-((methylamino)methyl)phenyl)pyridin-3-yl)ethyl)pyridin-2-amine] | – | – |
| 0.15 ± 0.04 10^−6 cm s^−1 | Cn1c(=O)c2[nH]cnc2n(C)c1=O.O [Theophylline] | – | – |
| 20.52 ± 0.64 10^−6 cm s^−1 | CNCCCN1c2ccccc2CCc2ccccc21 [Desipramine] | – | – |

Reference: publication PMC5699933 (Journal of medicinal chemistry, 2017)
